Results as given in patent publication US8247211B2, “Glycopeptide antibiotics” (American Cyanamid Company, priority 2001, dated 2012).
Converted amounts (≈) assume the structure as drawn.

Experiments:
Experiment in all cases: In vitro antibacterial evaluation: minimum inhibitory concentration (MIC), broth dilution method
Assay type in all cases: cell-based
[1] = system: Enterococcus sp.; conditions: 18 hours at 35° C.
Outline: (§1)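 Test strains, among them recent clinical isolates carrying methicillin, penicillin and/or vancomycin resistance, were inoculated at 5×10^5 CFU/mL. A broth dilution series spanning 64-0.06 μg/mL in Muller-Hinton II […] (NCCLS M7-A2) defined the MIC as the lowest growth-inhibiting concentration.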

[2] = system: Escherichia coli; conditions: 18 hours at 35° C.
Outline: as §1

[3] = system: Staphylococcus sp.
Outline: as §1

[4] = system: Streptococcus sp.; conditions: 18 hours at 35° C.
Outline: as §1

[5] = broth dilution, inoculum 5×10^5 CFU/mL

## CCCCN1CC(C(O)C2NC(=O)C(C(O)C3CNC(=N)N3)NC(=O)C(Cc3ccc(OC4OC(CO)C(OC5OC6COC7(OC6C(O)C5O)C5CC6CC(C5)CC7C6)C(O)C4O)cc3)NC(=O)C(C(C)c3ccccc3)NC(=O)CNC(=O)C(CO)NC2=O)N(C2OC(CO)C(O)C(O)C2O)C1=N (stereo not drawn) [Example 224, Cyclo[glycyl-β-methylphenylalanyl-O-[4-O-[4,6-O-(2-adamantylidene)hexopyranosyl]hexopyranosyl]tyrosyl-3-(2-iminoimidazolidin-4-yl)seryl-3-(1-butyl-3-hexopyranosyl-2-iminoimidazolidin-4-yl)serylseryl]]
[1]; Enterococcus avium (GC 4558)
  MIC Enterococcus avium (GC 4558): 2 µg/mL (≈ 1.35 µM)
[1]; Enterococcus faecalis (ATCC 29212)
  MIC Enterococcus faecalis (ATCC 29212): 4 µg/mL (≈ 2.7 µM)
[1]; Enterococcus faecalis (GC 2242)
  MIC Enterococcus faecalis (GC 2242): 4 µg/mL (≈ 2.7 µM)
[1]; Enterococcus faecalis (GC 2691)
  MIC Enterococcus faecalis (GC 2691): 4 µg/mL (≈ 2.7 µM)
[1]; Enterococcus faecalis (GC 3059)
  MIC Enterococcus faecalis (GC 3059): 4 µg/mL (≈ 2.7 µM)
[1]; Enterococcus faecalis (GC 4552)
  MIC Enterococcus faecalis (GC 4552): 4 µg/mL (≈ 2.7 µM)
[1]; Enterococcus faecalis (GC 4553)
  MIC Enterococcus faecalis (GC 4553): 2 µg/mL (≈ 1.35 µM)
[1]; Enterococcus faecalis (GC 4554)
  MIC Enterococcus faecalis (GC 4554): 4 µg/mL (≈ 2.7 µM)
[1]; Enterococcus faecalis (GC 6189)
  MIC Enterococcus faecalis (GC 6189): 4 µg/mL (≈ 2.7 µM)
[1]; Enterococcus faecium (GC 2243)
  MIC Enterococcus faecium (GC 2243): 2 µg/mL (≈ 1.35 µM)
[1]; Enterococcus faecium (GC 4556)
  MIC Enterococcus faecium (GC 4556): 4 µg/mL (≈ 2.7 µM)
[1]; Enterococcus faecium (GC 4557)
  MIC Enterococcus faecium (GC 4557): 0.5 µg/mL (≈ 0.337 µM)
[1]; [5]
  MIC Enterococcus avium (GC 4558): 2 µg/mL (≈ 1.35 µM)
  MIC Enterococcus faecalis (ATCC 29212): 4 µg/mL (≈ 2.7 µM)
  MIC Enterococcus faecalis (GC 2242): 4 µg/mL (≈ 2.7 µM)
  MIC Enterococcus faecalis (GC 2691): 4 µg/mL (≈ 2.7 µM)
  MIC Enterococcus faecalis (GC 3059): 4 µg/mL (≈ 2.7 µM)
  MIC Enterococcus faecalis (GC 4552): 4 µg/mL (≈ 2.7 µM)
  MIC Enterococcus faecalis (GC 4553): 2 µg/mL (≈ 1.35 µM)
  MIC Enterococcus faecalis (GC 4554): 4 µg/mL (≈ 2.7 µM)
  MIC Enterococcus faecalis (GC 6189): 4 µg/mL (≈ 2.7 µM)
  MIC Enterococcus faecium (GC 2243): 2 µg/mL (≈ 1.35 µM)
  MIC Enterococcus faecium (GC 4556): 4 µg/mL (≈ 2.7 µM)
  MIC Enterococcus faecium (GC 4557): 0.5 µg/mL (≈ 0.337 µM)
[2]; Escherichia coli (GC 4559)
  MIC Escherichia coli (GC 4559): 64 µg/mL (≈ 43.1 µM)
[2]; Escherichia coli (GC 4560)
  MIC Escherichia coli (GC 4560): 2 µg/mL (≈ 1.35 µM)
[3]; strain ATCC 29213
  MIC Staphylococcus aureus (ATCC 29213): 2 µg/mL (≈ 1.35 µM)
[3]; strain GC 1131
  MIC Staphylococcus aureus (GC 1131): 4 µg/mL (≈ 2.7 µM)
[3]; strain GC 3051
  MIC Staphylococcus aureus (GC 3051): 2 µg/mL (≈ 1.35 µM)
[3]; strain GC 3053
  MIC Staphylococcus aureus (GC 3053): 4 µg/mL (≈ 2.7 µM)
[3]; strain GC 4541
  MIC Staphylococcus aureus (GC 4541): 1 µg/mL (≈ 0.674 µM)
[3]; strain GC 4542
  MIC Staphylococcus aureus (GC 4542): 4 µg/mL (≈ 2.7 µM)
[3]; strain GC 4543
  MIC Staphylococcus aureus-SMITH (GC 4543): 2 µg/mL (≈ 1.35 µM)
[3]; strain GC 4544
  MIC Staphylococcus aureus (GC 4544): 4 µg/mL (≈ 2.7 µM)
[3]; strain GC 4545
  MIC Staphylococcus aureus (GC 4545): 2 µg/mL (≈ 1.35 µM)
[3]; strain GC 4546
  MIC Staphylococcus haemolyticus (GC 4546): 1 µg/mL (≈ 0.674 µM)
[3]; strain GC 4547
  MIC Coagulase Negative Staphylococcus (GC 4547): 2 µg/mL (≈ 1.35 µM)
[3]; strain GC 4548
  MIC Coagulase Negative Staphylococcus (GC 4548): 1 µg/mL (≈ 0.674 µM)
[3]; strain GC 4549
  MIC Coagulase Negative Staphylococcus (GC 4549): 1 µg/mL (≈ 0.674 µM)
[3]; strain GC 4551
  MIC Coagulase Negative Staphylococcus (GC 4551): 2 µg/mL (≈ 1.35 µM)
[4]; Streptococcus agalactiae (GC 4564)
  MIC Streptococcus agalactiae (GC 4564): <0.12 µg/mL
[4]; Streptococcus pneumoniae (ATCC 6301)
  MIC Streptococcus pneumoniae (ATCC 6301): 0.25 µg/mL (≈ 0.169 µM)
[4]; Streptococcus pneumoniae (GC 1894)
  MIC Streptococcus pneumoniae (GC 1894): <0.12 µg/mL
[4]; Streptococcus pneumoniae (GC 4565)
  MIC Streptococcus pneumoniae (GC 4565): 0.25 µg/mL (≈ 0.169 µM)
[4]; Streptococcus pyogenes (GC 4563)
  MIC Streptococcus pyogenes (GC 4563): 0.25 µg/mL (≈ 0.169 µM)
[4]; [5]
  MIC Streptococcus agalactiae (GC 4564): <0.12 µg/mL
  MIC Streptococcus pneumoniae (ATCC 6301): 0.25 µg/mL (≈ 0.169 µM)
  MIC Streptococcus pneumoniae (GC 1894): <0.12 µg/mL
  MIC Streptococcus pneumoniae (GC 4565): 0.25 µg/mL (≈ 0.169 µM)
  MIC Streptococcus pyogenes (GC 4563): 0.25 µg/mL (≈ 0.169 µM)
